Tested on: male New Zealand white rabbits
Experiment: Serum total cholesterol and lipoprotein fractions in rabbits after 30 days feeding
Type: in vivo, rabbit
Settings: mean ± SEM
Description: This antihyperlipidemic action is shown for an NHE inhibitor, 4-isopropyl-3-methylsulfonylbenzoylguanidine methanesulfonate (Hoe 642), in the following table, male New Zealand white rabbits (n=28) having a weight of 3-4 kg being used and divided into four groups of 7 animals in each case randomized as described below: 1) standard rabbit feed (®Altromin 2834), 2) atherogenic diet having a content of 0.25% cholesterol and 3% coconut oil, 3) standard rabbit feed+Hoe 642 (0.1%), 4) atherogenic diet+Hoe 642 (0.1%). Blood samples were taken once after 30 days feeding by puncture of the auricular artery. Serum was obtained from the blood. The total cholesterol was measured from the serum by means of the CHOD (cholesterol oxidase)-PAP method (Merckotest, Merck Diagnostics, E. Merck, 64271 Darmstadt, Germany). The separation of the lipoproteins was carried out, likewise from the serum, by FPLC (fast protein liquid chromatography) method (März et al. 1993, Clin. Chem. 39/11:2276-2281).

[1] = atherogenic diet (0.25% cholesterol, 3% coconut oil) + Hoe 642 0.1%
[2] = normal diet (standard rabbit feed) + Hoe 642 0.1%

CC(C)c1ccc(C(=O)NC(=N)N)cc1S(C)(=O)=O [HOE 642, 4-isopropyl-3-methylsulfonylbenzoylguanidine methanesulfonate]
LDL (serum cholesterol fraction) [1]: 2.1 ± 0.2 mmol/L
Total cholesterol (serum) [1]: 7.95 ± 0.89 mmol/L
VLDL (serum cholesterol fraction) [1]: 4.6 ± 0.6 mmol/L
LDL (serum cholesterol fraction) [2]: 0.23 ± 0.04 mmol/L
Total cholesterol (serum) [2]: 0.69 ± 0.1 mmol/L
VLDL (serum cholesterol fraction) [2]: 0.05 ± 0.02 mmol/L

— patent US20040122096A1, “Use of inhibitors of the cellular Na+/H+ exchanger (NHE) for preparing a medicament for normalizing serum lipids” (Hoechst Aktiengesellschaft, priority 1996, published 2004)
